Experimental data reported in the NIST ThermoML archive (doi:10.1016/j.jct.2011.11.004).
Several values for one entry are separate records, joined by “and”; a condition that tells them apart may be missing. Identical values can stand only once. ± gives the expanded uncertainty stated by the source.

Details: Liquid, Transpiration method

CN(C)CCCN(C)C [N,N,N',N'-tetramethyl-1,3-propanediamine]
vapor or sublimation pressure (273.5 K): 0.1509 ± 0.0059 kPa and 0.1417 ± 0.0065 kPa | vapor or sublimation pressure (274.2 K): 0.1541 ± 0.0062 kPa | vapor or sublimation pressure (275 K): 0.1633 ± 0.0068 kPa | vapor or sublimation pressure (275.6 K): 0.1714 ± 0.007 kPa | vapor or sublimation pressure (276.1 K): 0.1754 ± 0.0072 kPa | vapor or sublimation pressure (276.6 K): 0.1837 ± 0.0078 kPa | vapor or sublimation pressure (277.1 K): 0.191 ± 0.0078 kPa | vapor or sublimation pressure (278.4 K): 0.2056 ± 0.0083 kPa | vapor or sublimation pressure (279.2 K): 0.2168 ± 0.0092 kPa | vapor or sublimation pressure (281.1 K): 0.2546 ± 0.01 kPa | vapor or sublimation pressure (283.4 K): 0.2873 ± 0.012 kPa and 0.3004 ± 0.012 kPa | vapor or sublimation pressure (285.8 K): 0.3528 ± 0.015 kPa | vapor or sublimation pressure (287.6 K): 0.4012 ± 0.017 kPa | vapor or sublimation pressure (289 K): 0.455 ± 0.019 kPa | vapor or sublimation pressure (294.3 K): 0.6329 ± 0.025 kPa | vapor or sublimation pressure (295.7 K): 0.6783 ± 0.027 kPa | vapor or sublimation pressure (299.2 K): 0.8136 ± 0.033 kPa and 0.8194 ± 0.033 kPa | vapor or sublimation pressure (300.8 K): 0.9386 ± 0.039 kPa | vapor or sublimation pressure (304.3 K): 1.143 ± 0.046 kPa | vapor or sublimation pressure (305.8 K): 1.227 ± 0.049 kPa and 1.226 ± 0.049 kPa | vapor or sublimation pressure (309.1 K): 1.435 ± 0.058 kPa | vapor or sublimation pressure (310.8 K): 1.654 ± 0.067 kPa | vapor or sublimation pressure (310.9 K): 1.663 ± 0.068 kPa | vapor or sublimation pressure (315.6 K): 2.117 ± 0.086 kPa and 2.069 ± 0.084 kPa and 2.116 ± 0.086 kPa | vapor or sublimation pressure (323.1 K): 3.214 ± 0.13 kPa

CCN(CC)CCCN [N,N-diethylpropane-1,3-diamine]
vapor or sublimation pressure (277.2 K): 0.03765 ± 0.0016 kPa | vapor or sublimation pressure (279.1 K): 0.04448 ± 0.0019 kPa | vapor or sublimation pressure (280.2 K): 0.04785 ± 0.002 kPa | vapor or sublimation pressure (283.2 K): 0.06153 ± 0.0026 kPa | vapor or sublimation pressure (286.2 K): 0.07622 ± 0.0031 kPa | vapor or sublimation pressure (287.7 K): 0.08442 ± 0.0036 kPa | vapor or sublimation pressure (288.2 K): 0.09379 ± 0.0039 kPa | vapor or sublimation pressure (289.2 K): 0.09614 ± 0.0039 kPa | vapor or sublimation pressure (291.1 K): 0.1087 ± 0.0045 kPa and 0.1173 ± 0.0049 kPa | vapor or sublimation pressure (292.1 K): 0.1195 ± 0.0051 kPa | vapor or sublimation pressure (293.2 K): 0.1316 ± 0.0054 kPa | vapor or sublimation pressure (295.2 K): 0.1494 ± 0.0061 kPa and 0.1591 ± 0.0065 kPa | vapor or sublimation pressure (297.2 K): 0.17 ± 0.0093 kPa | vapor or sublimation pressure (297.3 K): 0.1835 ± 0.0077 kPa and 0.1811 ± 0.0076 kPa | vapor or sublimation pressure (297.4 K): 0.1872 ± 0.0079 kPa | vapor or sublimation pressure (297.5 K): 0.1799 ± 0.0083 kPa | vapor or sublimation pressure (298.2 K): 0.1935 ± 0.0078 kPa | vapor or sublimation pressure (299.4 K): 0.2021 ± 0.0084 kPa | vapor or sublimation pressure (299.5 K): 0.2132 ± 0.0088 kPa | vapor or sublimation pressure (301.2 K): 0.2397 ± 0.0099 kPa | vapor or sublimation pressure (303.1 K): 0.274 ± 0.011 kPa and 0.2527 ± 0.011 kPa | vapor or sublimation pressure (303.3 K): 0.2637 ± 0.011 kPa | vapor or sublimation pressure (305.1 K): 0.3138 ± 0.013 kPa

CN(C)CCCN [N,N-dimethyl-1,3-propanediamine]
vapor or sublimation pressure (273.5 K): 0.1753 ± 0.0075 kPa | vapor or sublimation pressure (273.8 K): 0.1802 ± 0.0078 kPa | vapor or sublimation pressure (274.2 K): 0.1875 ± 0.0081 kPa | vapor or sublimation pressure (275.8 K): 0.2076 ± 0.0085 kPa | vapor or sublimation pressure (275.9 K): 0.2029 ± 0.0083 kPa | vapor or sublimation pressure (276.4 K): 0.2181 ± 0.0093 kPa | vapor or sublimation pressure (277.8 K): 0.2407 ± 0.011 kPa | vapor or sublimation pressure (278.1 K): 0.2481 ± 0.011 kPa | vapor or sublimation pressure (278.4 K): 0.2539 ± 0.011 kPa | vapor or sublimation pressure (281.1 K): 0.2962 ± 0.015 kPa | vapor or sublimation pressure (281.4 K): 0.3109 ± 0.016 kPa | vapor or sublimation pressure (283.4 K): 0.3594 ± 0.015 kPa and 0.3558 ± 0.015 kPa and 0.3618 ± 0.015 kPa | vapor or sublimation pressure (285.8 K): 0.4176 ± 0.021 kPa | vapor or sublimation pressure (286.2 K): 0.4454 ± 0.022 kPa | vapor or sublimation pressure (288.1 K): 0.5012 ± 0.02 kPa and 0.4936 ± 0.02 kPa | vapor or sublimation pressure (288.7 K): 0.5167 ± 0.021 kPa | vapor or sublimation pressure (288.8 K): 0.5086 ± 0.021 kPa | vapor or sublimation pressure (289.2 K): 0.5356 ± 0.025 kPa and 0.538 ± 0.025 kPa | vapor or sublimation pressure (291.7 K): 0.628 ± 0.025 kPa | vapor or sublimation pressure (292.1 K): 0.6355 ± 0.027 kPa and 0.6539 ± 0.027 kPa | vapor or sublimation pressure (293 K): 0.6977 ± 0.029 kPa | vapor or sublimation pressure (294.9 K): 0.7794 ± 0.036 kPa | vapor or sublimation pressure (295.2 K): 0.8075 ± 0.036 kPa | vapor or sublimation pressure (296.9 K): 0.8821 ± 0.035 kPa | vapor or sublimation pressure (297.8 K): 0.9313 ± 0.039 kPa | vapor or sublimation pressure (298.2 K): 0.981 ± 0.04 kPa | vapor or sublimation pressure (298.9 K): 1.011 ± 0.041 kPa | vapor or sublimation pressure (299.7 K): 1.058 ± 0.043 kPa

CNCCCN [N-methyl-1,3-diaminopropane]
vapor or sublimation pressure (276.2 K): 0.09113 ± 0.0039 kPa | vapor or sublimation pressure (279.3 K): 0.1163 ± 0.0049 kPa | vapor or sublimation pressure (282.3 K): 0.1481 ± 0.0062 kPa | vapor or sublimation pressure (285.2 K): 0.1855 ± 0.0077 kPa | vapor or sublimation pressure (288.2 K): 0.2287 ± 0.0096 kPa | vapor or sublimation pressure (291.2 K): 0.2973 ± 0.012 kPa | vapor or sublimation pressure (292.7 K): 0.3328 ± 0.014 kPa | vapor or sublimation pressure (294.1 K): 0.3667 ± 0.015 kPa | vapor or sublimation pressure (297.1 K): 0.4634 ± 0.019 kPa | vapor or sublimation pressure (298.8 K): 0.5298 ± 0.022 kPa | vapor or sublimation pressure (300.2 K): 0.5889 ± 0.024 kPa | vapor or sublimation pressure (303.2 K): 0.7223 ± 0.029 kPa
